The assay deals with PD-1/PD-L1-mediated T cell activation inhibitory signal. As to the kind of experiment: CHO-PD-L1-CD3L / Jurkat-PD-1-NFAT co-culture luciferase reporter assay. It counts as cell-based. The settings on record: Homo sapiens, co-culture 6 h, read-out: EC50 blocking PD-1/PD-L1-mediated T cell activation inhibitory signal. The procedure: In order to detect the effect of the interaction between PD-1 and PD-L1 on T cell activation signals in the immune response, CHO-PD-L1-CD3L cells stably expressing human PD-L1 molecules and anti-CD3 single-chain antibody (ScFv) and Jurkat-PD-1-NFAT cells stably expressing human PD-1 molecule and NFAT reporter gene were constructed. When the two kinds of cells were co-incubated, the binding of anti-CD3ScFv on the surface of CHO cells and the membrane CD3 molecules of Jurkat cells would transmit an activation signal to Jurkat cells, but simultaneously, the binding of PD-L1 on the surface of CHO cells and PD-1 molecules on the surface of Jurkat cells would transmit an inhibitory signal inward to prevent expression of the luciferase reporter gene. When immune checkpoint antibodies or small molecule inhibitors were added, the binding of PD-1 and PD-L1 was blocked, the NFAT pathway activated by T cell activation signal mediated by cross-linking of CD3ScFv antibody and CD3 was no longer affected by the inhibitory signal, and the downstream luciferase reporter gene started to be expressed. A chemiluminescent signal proportional to reporter gene activation was detected by adding a catalytic substrate.
CHO-PD-L1-CD3L cells expressing human PD-L1 molecule and anti-CD3 single-chain antibody (ScFv) and Jurkat-PD-1-NFAT cells stably expressing human PD-1 molecule and NFAT reporter gene were independently constructed and provided by Dr. Chen Bo (KeyMed Bioscience (Chengdu) Co., Ltd.). Puromycin (Cat #540411) and Hygromycin B (Cat #V900372) for stable culture of transfected cells were purchased from Sigma, PMA (Cat #P1585) was purchased from Sigma, anti-human PD-L1 antibody (Cat #GMP-A066) was purchased from Novoprotein Company. Luciferase substrate solution (Cat #E6485) and luciferase-specific cell lysis solution 5× (Cat #E1531) were purchased from Promega. Fluorescence detection instrument Tecan (Spark 10M) was purchased from Switzerland Tecan Company.
(1) The day before the experiment, 100 μL of CHO-PD-L1-CD3L cells were inoculated in each well of a 96-well cell culture plate (about 4×10^4 cells/well) with a medium of DMEM/F12 containing 10% FBS, 8 μg/mL puromycin and 200 μg/mL hygromycin B, and cultured overnight at 37° C.
(2) The test compounds were diluted with 0.1% PBST into different concentration gradients, added into 96-well plates, and pre-incubated for 30 min. Jurkat-PD-1-NFAT cell count was adjusted to 2×10^5 cells/mL with the RPMI 1640 complete medium containing 10% FBS, […]8 μg/mL puromycin and 200 μg/mL hygromycin B. 100 ng/mL PMA (the stock solution was prepared with DMSO to a concentration of 10 mg/mL) was added to amplify T cell activation signal. 100 μL of the above Jurkat-PD-1-NFAT cells was added to each well of the 96-well plate for co-culture.
(3) When detecting the reaction, a control group was provided, including a solvent control without adding test compounds and a positive control with addition of anti-human PD-1 antibody as the experimental system. All detections were performed with duplicates.
(4) After continuous incubation at 37° C. for 6 h, 40 μL of 5× cell lysate was directly added, and mixed well. The plate was placed at room temperature for 10 min to completely lyse the cells. 50 μL of the lysed cell solution was transferred to a fluorescence detection plate, and added with 30 μL of luciferase substrate solution. The chemiluminescence detection program on the fluorescence detector was immediately selected for detection.
(5) The inhibition rate of T cell activation signal at the cellular level of the test compounds was calculated as follows: Inhibition rate of T cell activation signal (%)=(the original value of chemiluminescence in the detection well−solvent control)/(the highest original value of chemiluminescence detected in the compound detection well−solvent control)×100%. […]

These results are taken from patent US20260234164A1, “BIPHENYL COMPOUND AS IMMUNOMODULATOR, PREPARATION METHOD THEREFOR AND USE THEREOF” (SHENZHEN CHIPSCREEN BIOSCIENCES CO., LTD., priority 2021, published 2026).

As for `[2H]C([2H])([2H])OCC12CCC(CCN3CCc4c(nc(C(=O)Nc5cccc(-c6cccc(NC(=O)c7nc8c(n7C([2H])([2H])[2H])CCN(CCC79CCC(C(=O)O)(CC7)C9)C8)c6Cl)c5Cl)n4C([2H])([2H])[2H])C3)(CC1)C2` [Compound I-5, 4-(2-(2-((2,2′-dichloro-3′-(5-(2-(4-((methoxy-d3)methyl)bicyclo[2.2.1]heptane-1-yl)ethyl)-1-(methyl-d3)-4,5,6,7-tetrahydro-1H-imidazo[4,5-c]pyridine-2-carboxamido)-[1,1′-biphenyl]-3-yl)carbamoyl)-1-(methyl-d3)-1,4,6,7-tetrahydro-5H-imidazo[4,5-c]pyridin-5-yl)ethyl)bicyclo[2.2.1]heptane-1-carboxylic acid], the EC50 was 0.0125 µM.
Regarding `[2H]C([2H])([2H])OCC12CCC(CCN3CCc4c(nc(C(=O)Nc5cccc(-c6cccc(NC(=O)c7nc8c(n7C)CCN(CCC79CCC(C(=O)O)(CC7)C9)C8)c6Cl)c5F)n4C)C3)(CC1)C2` (single isomer, unassigned) [Compound I-2, 4-(2-(2-((2-chloro-2′-fluoro-3′-(5-(2-(4-((methoxy-d3)methyl)bicyclo[2.2.1]heptane-1-y 1)ethyl)-1-methyl-4,5,6,7-tetrahydro-1H-imidazo[4,5-c]pyridine-2-carboxamido)-[1,1′-biphenyl]-3-yl)carbamoyl)-1-methyl-1,4,6,7-tetrahydro-5H-imidazo[4,5-c]pyridin-5-yl)ethyl)bicyclo[2.2.1]heptane-1-carboxylic acid], the EC50 was found to be 0.0198 µM.
Consider `[2H]c1c([2H])c(NC(=O)c2nc3c(n2C)CCN(CCC24CCC(COC([2H])([2H])[2H])(CC2)C4)C3)c(F)c(-c2c([2H])c([2H])c([2H])c(NC(=O)c3nc4c(n3C)CCN(CCC35CCC(C(=O)O)(CC3)C5)C4)c2Cl)c1[2H]` (single isomer, unassigned) [Compound I-14, 4-(2-(2-((2-chloro-2′-fluoro-3′-(5-(2-(4-((methoxy-d3)methyl)bicyclo[2.2.1]heptane-1-y 1)ethyl)-1-methyl-4,5,6,7-tetrahydro-1H-imidazo[4,5-c]pyridine-2-carboxamido)-[1,1′-biphenyl]-3-yl-4,4′,5,5′,6,6′-d6)carbamoyl)-1-methyl-1,4,6,7-tetrahydro-5H-imidazo[4,5-c]pyridin-5-yl)ethyl)bicyclo[2.2.1]heptane-1-carboxylic acid], for which the EC50 was determined as 0.0151 µM.
Regarding `[2H]C([2H])([2H])OCC12CCC(CCN3CCc4c(nc(C(=O)Nc5cccc(-c6cccc(NC(=O)c7nc8c(n7C([2H])([2H])[2H])CCN(CCC79CCC(C(=O)O)(CC7)C9)C8)c6Cl)c5F)n4C([2H])([2H])[2H])C3)(CC1)C2` (single isomer, unassigned) [Compound I-7, 4-(2-(2-((2-chloro-2′-fluoro-3′-(5-(2-(4-((methoxy-d3)methyl)bicyclo[2.2.1]heptane-1-yl)ethyl)-1-(methyl-d3)-4,5,6,7-tetrahydro-1H-imidazo[4,5-c]pyridine-2-carboxamido)-[1,1′-biphenyl]-3-yl)carbamoyl)-1-(methyl-d3)-1,4,6,7-tetrahydro-5H-imidazo[4,5-c]pyridin-5-yl)ethyl)bicyclo[2.2.1]heptane-1-carboxylic acid], the EC50 was determined as 0.0196 µM.
As for `[2H]C([2H])([2H])OCC12CCC(CCN3CCc4c(nc(C(=O)Nc5cccc(-c6cccc(NC(=O)c7nc8c(n7C)CCN(CCC79CCC(C(=O)O)(CC7)C9)C8)c6Cl)c5C)n4C)C3)(CC1)C2` [Compound I-4, 4-(2-(2-((2-chloro-3′-(5-(2-(4-((methoxy-d3)methyl)bicyclo[2.2.1]heptane-1-yl)ethyl)-1-methyl-4,5,6,7-tetrahydro-1H-imidazo[4,5-c]pyridine-2-carboxamido)-2′-methyl-[1,1′-biphenyl]-3-yl)carbamoyl)-1-methyl-1,4,6,7-tetrahydro-5H-imidazo[4,5-c]pyridin-5-yl)ethyl)bicyclo[2.2.1]heptane-1-carboxylic acid], the EC50 was determined as 0.00972 µM.
The value for `[2H]C([2H])([2H])n1c(C(=O)Nc2cccc(-c3cccc(NC(=O)c4nc5c(n4C([2H])([2H])[2H])CCN(CCC46CCC(C(=O)O)(CC4)C6)C5)c3Cl)c2F)nc2c1CCN(CCC13CCC(COC)(CC1)C3)C2` (single isomer, unassigned) [Compound I-8, 4-(2-(2-((2-chloro-2′-fluoro-3′-(5-(2-(4-(methoxymethyl)bicyclo[2.2.1]heptane-1-yl)ethyl)-1-(methyl-d3)-4,5,6,7-tetrahydro-1H-imidazo[4,5-c]pyridine-2-carboxamido)-[1,1′-biphenyl]-3-yl)carbamoyl)-1-(methyl-d3)-1,4,6,7-tetrahydro-5H-imidazo[4,5-c]pyridin-5-yl)ethyl)bicyclo[2.2.1]heptane-1-carboxylic acid] was 0.0451 µM; that for `[2H]C([2H])([2H])n1c(C(=O)Nc2cccc(-c3cccc(NC(=O)c4nc5c(n4C([2H])([2H])[2H])CCN(CCC46CCC(COC)(CC4)C6)C5)c3Cl)c2C)nc2c1CCN(CCC13CCC(C(=O)O)(CC1)C3)C2` [Compound I-12, 4-(2-(2-((2′-chloro-3′-(5-(2-(4-(methoxymethyl)bicyclo[2.2.1]heptane-1-yl)ethyl)-1-(methyl-d3)-4,5,6,7-tetrahydro-1H-imidazo[4,5-c]pyridine-2-carboxamido)-2-methyl-[1,1′-biphenyl]-3-yl)carbamoyl)-1-(methyl-d3)-1,4,6,7-tetrahydro-5H-imidazo[4,5-c]pyridin-5-yl)ethyl)bicyclo [2.2.1]heptane-1-carboxylic acid] was 0.0479 µM.
For the molecule `[2H]c1c([2H])c(NC(=O)c2nc3c(n2C([2H])([2H])[2H])CCN(CCC24CCC(COC([2H])([2H])[2H])(CC2)C4)C3)c(Cl)c(-c2c([2H])c([2H])c([2H])c(NC(=O)c3nc4c(n3C([2H])([2H])[2H])CCN(CCC35CCC(C(=O)O)(CC3)C5)C4)c2Cl)c1[2H]` [Compound I-13, 4-(2-(2-((2,2′-dichloro-3′-(5-(2-(4-((methoxy-d3)methyl)bicyclo[2.2.1]heptane-1-yl)ethyl)-1-(methyl-d3)-4,5,6,7-tetrahydro-1H-imidazo[4,5-c]pyridine-2-carboxamido)-[1,1′-biphenyl]-3-yl-4,4′, 5,5′,6,6′-d6)carbamoyl)-1-(methyl-d3)-1,4,6,7-tetrahydro-5H-imidazo[4,5-c]pyridin-5-yl)ethyl)bicyclo[2.2.1]heptane-1-carboxylic acid], the EC50 was 0.0262 µM.
As for `[2H]C([2H])([2H])OCC12CCC(CCN3CCc4c(nc(C(=O)Nc5cccc(-c6cccc(NC(=O)c7nc8c(n7C([2H])([2H])[2H])CCN(CCC79CCC(C(=O)O)(CC7)C9)C8)c6C)c5Cl)n4C([2H])([2H])[2H])C3)(CC1)C2` [Compound I-11, 4-(2-(2-((2′-chloro-3′-(5-(2-(4-((methoxy-d3)methyl)bicyclo[2.2.1]heptane-1-yl)ethyl)-1-(methyl-d3)-4,5,6,7-tetrahydro-1H-imidazo[4,5-c]pyridine-2-carboxamido)-2-methyl-[1,1′-biphenyl]-3-yl)carbamoyl)-1-(methyl-d3)-1,4,6,7-tetrahydro-5H-imidazo[4,5-c]pyridin-5-yl)ethyl)bicyclo[2.2.1]heptane-1-carboxylic acid], the EC50 came to 0.0584 µM.
